Assay results as given in US20150105252A1, “SUBSTITUTED PYRAZOLES AS HERBICIDES” (E I DU PONT DE NEMOURS AND COMPANY, priority 2013, published 2015).

Columns and labels:
barnyardgrass [1] = experiment: Test A preemergence; assay type: in vivo, Echinochloa crus-galli; conditions: preemergence
Summary of the method: (§1)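 After sowing in a sand–loam mix, pots received compound preemergence by directed soil spray, or postemergence once plants reached the one- to two-leaf stage (2–10 cm). Formulation contained surfactant in a non-phytotoxic solvent. Injury was scored visually after ~10 greenhouse days, 0–100 scale.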

foxtail, giant [2] = experiment: Test A preemergence; assay type: in vivo, Setaria faberii; conditions: preemergence
Summary of the method: as §1

corn [3] = experiment: Test A preemergence; assay type: in vivo, Zea mays; conditions: preemergence
Summary of the method: as §1

foxtail, giant [4] = experiment: Test A postemergence; assay type: in vivo, Setaria faberii
Summary of the method: as §1

morningglory = experiment: Test A postemergence; assay type: in vivo, Ipomoea spp.
Summary of the method: as §1

wheat = experiment: Test A postemergence; assay type: in vivo, Triticum aestivum
Summary of the method: as §1

corn [5] = experiment: Test C preemergence; assay type: in vivo, Zea mays; conditions: for Plant response rating (scale of 0 to 100), Corn: Preemergence, 250 g ai/ha; for Corn plant response rating / Plant response rating, Corn: preemergence; for Plant response rating, Corn: 62 g ai/ha, scale 0 to 100, 0 = no effect, 100 = complete control
Summary of the method: (§2)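 Seeds sown in loam–sand blend and treated preemergence with test chemicals in non-phytotoxic solvent with surfactant; postemergence plants in peat-based medium, treated at 2–18 cm (1- to 4-leaf stage). Greenhouse 13 to 15 days, then visual rating versus controls, 0 (no effect) to 100 (complete control).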

crabgrass, large = experiment: Test C preemergence; assay type: in vivo, Digitaria sanguinalis; conditions: for Plant response rating (scale of 0 to 100), Crabgrass, Large: Preemergence, 250 g ai/ha; for Crabgrass, Large plant response rating / Plant response rating, Crabgrass, Large: preemergence; for Plant response rating, Crabgrass, Large: 62 g ai/ha, scale 0 to 100, 0 = no effect, 100 = complete control
Description: (§3) Seeds of plant species selected from blackgrass (Alopecurus myosuroides), ryegrass, Italian (Italian ryegrass, Lolium multiflorum), wheat (winter wheat, Triticum aestivum), galium (catchweed bedstraw, Galium aparine), corn (Zea mays), crabgrass, large (large crabgrass, Digitaria sanguinalis), foxtail, giant (giant foxtail, Setaria faberii), johnsongrass (Sorghum halepense), lambsquarters (Chenopodium album), morningglory (Ipomoea coccinea), nutsedge, yellow (yellow nutsedge, Cyperus esculentus), pigweed (redroot pigweed, Amaranthus retroflexus), ragweed (common ragweed, Ambrosia elation), soybean (Glycine max), barnyardgrass (Echinochloa crus-galli), oilseed rape (Brassica napus), waterhemp (common waterhemp, Amaranthus rudis), oat, wild (wild oat, Avena fatua), kochia (Kochia scoparia), Surinam grass (Brachiaria decumbens), foxtail, green (green foxtail, Setaria viridis), goosegrass (Eleusine indica), bromegrass, downy (downy bromegrass, Bromus tectorum), nightshade (eastern black nightshade, Solanum ptycanthum), cocklebur (common cocklebur, Xanthium strumarium), cupgrass, woolly (woolly cupgrass, Eriochloa villosa), bermudagrass (Cynodon dactylon), sunflower, (common oilseed sunflower, Helianthus annuus), Russian thistle (Salsola kali), and velvetleaf (Abutilon theophrasti) were planted into a blend of loam soil and sand and treated preemergence with test chemicals formulated in a non-phytotoxic solvent mixture which included a surfactant.
(§4) At the same time, plants selected from these crop and weed species and also chickweed (common chickweed, Stellaria media), canarygrass (littleseed canarygrass, Phalaris minor), and deadnettle (henbit deadnettle, Lamium amplexicaule), were planted in pots containing Redi-Earth® planting medium (Scotts Company, 14111 Scottslawn Road, Marysville, Ohio 43041) comprising spaghnum peat moss, vermiculite, wetting agent and starter nutrients and treated with postemergence applications of test chemicals formulated in the same manner. Plants ranged in height from 2 to 18 cm (1- to 4-leaf stage) for postemergence treatments. Treated plants and controls were maintained in a greenhouse for 13 to 15 days, after which time all species were compared to controls and visually evaluated. Plant response ratings, summarized in Table C, are based on a scale of 0 to 100 where 0 is no effect and 100 is complete control. A dash (-) response means no test result.

foxtail, giant [6] = experiment: Test C preemergence; assay type: in vivo, Setaria faberii; conditions: for Plant response rating (scale of 0 to 100), Foxtail, Giant: Preemergence, 250 g ai/ha; for Foxtail, Giant plant response rating / Plant response rating, Foxtail, Giant: preemergence; for Plant response rating, Foxtail, Giant: 62 g ai/ha, scale 0 to 100, 0 = no effect, 100 = complete control
Description: as §3, §4

johnsongrass = experiment: Test C preemergence; assay type: in vivo, Sorghum halepense; conditions: for Plant response rating (scale of 0 to 100), Johnsongrass: Preemergence, 250 g ai/ha; for Johnsongrass plant response rating / Plant response rating, Johnsongrass: preemergence; for Plant response rating, Johnsongrass: 62 g ai/ha, scale 0 to 100, 0 = no effect, 100 = complete control
Summary of the method: as §2

pigweed = experiment: Test C preemergence; assay type: in vivo, Amaranthus retroflexus; conditions: for Plant response rating (scale of 0 to 100), Pigweed: Preemergence, 250 g ai/ha; for Pigweed plant response rating / Plant response rating, Pigweed: preemergence; for Plant response rating, Pigweed: 62 g ai/ha, scale 0 to 100, 0 = no effect, 100 = complete control
Summary of the method: as §2

soybean = experiment: Test C preemergence; assay type: in vivo, Glycine max; conditions: for Plant response rating (scale of 0 to 100), Soybean: Preemergence, 250 g ai/ha; for Soybean plant response rating / Plant response rating, Soybean: preemergence; for Plant response rating, Soybean: 62 g ai/ha, scale 0 to 100, 0 = no effect, 100 = complete control
Summary of the method: as §2

barnyardgrass [7] = experiment: Test C preemergence; assay type: in vivo, Echinochloa crus-galli; conditions: for Plant response rating (scale of 0 to 100), Barnyardgrass: Preemergence, 250 g ai/ha; for Barnyardgrass plant response rating / Plant response rating, Barnyardgrass: preemergence; for Plant response rating, Barnyardgrass: 62 g ai/ha, scale 0 to 100, 0 = no effect, 100 = complete control
Summary of the method: as §2

waterhemp = experiment: Test C preemergence; assay type: in vivo, Amaranthus rudis; conditions: for Plant response rating (scale of 0 to 100), Waterhemp: Preemergence, 250 g ai/ha; for Waterhemp plant response rating / Plant response rating, Waterhemp: preemergence; for Plant response rating, Waterhemp: 62 g ai/ha, scale 0 to 100, 0 = no effect, 100 = complete control
Summary of the method: as §2

velvetleaf = experiment: Test C preemergence; assay type: in vivo, Abutilon theophrasti; conditions: for Plant response rating (scale of 0 to 100), Velvetleaf: Preemergence, 250 g ai/ha; for Velvetleaf plant response rating / Plant response rating, Velvetleaf: preemergence; for Plant response rating, Velvetleaf: 62 g ai/ha, scale 0 to 100, 0 = no effect, 100 = complete control
Description: as §3, §4

[8] = 125 g ai/ha, visual injury, 0 to 100 scale, approx. 10 days
[9] = 500 g ai/ha, visual injury after approx. 10 days, 0 to 100 scale (0 no effect, 100 complete control)
[10] = Postemergence, 500 g ai/ha, visual rating after approx. 10 days, 0 to 100 scale (0 no effect, 100 complete control)
[11] = postemergence, 125 g ai/ha, about 10 days, visual rating on 0 to 100 scale (0 no effect, 100 complete control)
[12] = 31 g ai/ha, visual rating, scale 0 to 100 (0 no effect, 100 complete control), 13 to 15 days
[13] = 125 g ai/ha, scale 0 to 100, 0 is no effect, 100 is complete control
[14] = 31 g ai/ha, scale 0 to 100 (0 no effect, 100 complete control), 13 to 15 days

SMILES: CCCc1cc(C(=O)NCC)nn1Cc1ccnc(C(F)(F)F)c1 [Compound 95]
- Barnyardgrass plant response rating (barnyardgrass [1]; [8]): 100
- Barnyardgrass plant response rating (barnyardgrass [1]; [9]): 100
- Foxtail, Giant plant response rating (foxtail, giant [2]; [8]): 100
- Foxtail, Giant plant response rating (foxtail, giant [2]; [9]): 100
- Corn plant response rating (corn [3]; [8]): 50
- Corn plant response rating (corn [3]; [9]): 90
- Foxtail, Giant plant response rating (foxtail, giant [4]; [10]): 100
- Foxtail, Giant plant response rating (foxtail, giant [4]; [11]): 100
- Morningglory plant response rating (morningglory; [10]): 100
- Morningglory plant response rating (morningglory; [11]): 90
- Wheat plant response rating (wheat; [10]): 90
- Wheat plant response rating (wheat; [11]): 80
- Plant response rating (scale of 0 to 100), Corn (corn [5]): 95
- Corn plant response rating (corn [5]; [12]): 35
- Plant response rating, Corn (corn [5]; 13 to 15 days): 50
- Corn plant response rating (corn [5]; [13]): 80
- Plant response rating (scale of 0 to 100), Crabgrass, Large (crabgrass, large): 100
- Crabgrass, Large plant response rating (crabgrass, large; [12]): 98
- Plant response rating, Crabgrass, Large (crabgrass, large; 13 to 15 days): 98
- Crabgrass, Large plant response rating (crabgrass, large; [13]): 98
- Plant response rating (scale of 0 to 100), Foxtail, Giant (foxtail, giant [6]): 100
- Foxtail, Giant plant response rating (foxtail, giant [6]; [12]): 100
- Plant response rating, Foxtail, Giant (foxtail, giant [6]; 13 to 15 days): 100
- Foxtail, Giant plant response rating (foxtail, giant [6]; [13]): 100
- Plant response rating (scale of 0 to 100), Johnsongrass (johnsongrass): 100
- Johnsongrass plant response rating (johnsongrass; [12]): 60
- Plant response rating, Johnsongrass (johnsongrass; 13 to 15 days): 85
- Johnsongrass plant response rating (johnsongrass; [13]): 95
- Plant response rating (scale of 0 to 100), Pigweed (pigweed): 100
- Pigweed plant response rating (pigweed; [12]): 100
- Plant response rating, Pigweed (pigweed; 13 to 15 days): 100
- Pigweed plant response rating (pigweed; [13]): 100
- Plant response rating (scale of 0 to 100), Soybean (soybean): 98
- Soybean plant response rating (soybean; [12]): 80
- Plant response rating, Soybean (soybean; 13 to 15 days): 90
- Soybean plant response rating (soybean; [13]): 95
- Plant response rating (scale of 0 to 100), Barnyardgrass (barnyardgrass [7]): 100
- Barnyardgrass plant response rating (barnyardgrass [7]; [14]): 100
- Plant response rating, Barnyardgrass (barnyardgrass [7]; 13 to 15 days): 100
- Barnyardgrass plant response rating (barnyardgrass [7]; [13]): 100
- Plant response rating (scale of 0 to 100), Waterhemp (waterhemp): 100
- Waterhemp plant response rating (waterhemp; [12]): 100
- Plant response rating, Waterhemp (waterhemp; 13 to 15 days): 100
- Waterhemp plant response rating (waterhemp; [13]): 100
- Plant response rating (scale of 0 to 100), Velvetleaf (velvetleaf): 100
- Velvetleaf plant response rating (velvetleaf; [12]): 50
- Plant response rating, Velvetleaf (velvetleaf; 13 to 15 days): 100
- Velvetleaf plant response rating (velvetleaf; [13]): 100

SMILES: CCc1cc(C(=O)NC2CC2)nn1Cc1ccnc(OC(F)F)c1 [Compound 98]
- Barnyardgrass plant response rating (barnyardgrass [1]; [8]): 90
- Barnyardgrass plant response rating (barnyardgrass [1]; [9]): 100
- Foxtail, Giant plant response rating (foxtail, giant [2]; [8]): 100
- Foxtail, Giant plant response rating (foxtail, giant [2]; [9]): 100
- Corn plant response rating (corn [3]; [8]): 70
- Corn plant response rating (corn [3]; [9]): 80
- Foxtail, Giant plant response rating (foxtail, giant [4]; [10]): 90
- Foxtail, Giant plant response rating (foxtail, giant [4]; [11]): 90
- Morningglory plant response rating (morningglory; [10]): 90
- Morningglory plant response rating (morningglory; [11]): 90
- Wheat plant response rating (wheat; [10]): 80
- Wheat plant response rating (wheat; [11]): 70
- Plant response rating (scale of 0 to 100), Corn (corn [5]): 95
- Corn plant response rating (corn [5]; [12]): 35
- Plant response rating, Corn (corn [5]; 13 to 15 days): 45
- Corn plant response rating (corn [5]; [13]): 90
- Plant response rating (scale of 0 to 100), Crabgrass, Large (crabgrass, large): 100
- Crabgrass, Large plant response rating (crabgrass, large; [12]): 98
- Plant response rating, Crabgrass, Large (crabgrass, large; 13 to 15 days): 100
- Crabgrass, Large plant response rating (crabgrass, large; [13]): 100
- Plant response rating (scale of 0 to 100), Foxtail, Giant (foxtail, giant [6]): 100
- Foxtail, Giant plant response rating (foxtail, giant [6]; [12]): 100
- Plant response rating, Foxtail, Giant (foxtail, giant [6]; 13 to 15 days): 100
- Foxtail, Giant plant response rating (foxtail, giant [6]; [13]): 100
- Plant response rating (scale of 0 to 100), Johnsongrass (johnsongrass): 100
- Johnsongrass plant response rating (johnsongrass; [12]): 65
- Plant response rating, Johnsongrass (johnsongrass; 13 to 15 days): 70
- Johnsongrass plant response rating (johnsongrass; [13]): 100
- Plant response rating (scale of 0 to 100), Pigweed (pigweed): 100
- Pigweed plant response rating (pigweed; [12]): 100
- Plant response rating, Pigweed (pigweed; 13 to 15 days): 100
- Pigweed plant response rating (pigweed; [13]): 100
- Plant response rating (scale of 0 to 100), Soybean (soybean): 98
- Soybean plant response rating (soybean; [12]): 30
- Plant response rating, Soybean (soybean; 13 to 15 days): 70
- Soybean plant response rating (soybean; [13]): 98
- Plant response rating (scale of 0 to 100), Barnyardgrass (barnyardgrass [7]): 100
- Barnyardgrass plant response rating (barnyardgrass [7]; [14]): 30
- Plant response rating, Barnyardgrass (barnyardgrass [7]; 13 to 15 days): 100
- Barnyardgrass plant response rating (barnyardgrass [7]; [13]): 100
- Plant response rating (scale of 0 to 100), Waterhemp (waterhemp): 100
- Waterhemp plant response rating (waterhemp; [12]): 98
- Plant response rating, Waterhemp (waterhemp; 13 to 15 days): 98
- Waterhemp plant response rating (waterhemp; [13]): 100
- Plant response rating (scale of 0 to 100), Velvetleaf (velvetleaf): 100
- Velvetleaf plant response rating (velvetleaf; [12]): 100
- Plant response rating, Velvetleaf (velvetleaf; 13 to 15 days): 100
- Velvetleaf plant response rating (velvetleaf; [13]): 100
